According to patent US20230219957A1, “SMALL MOLECULE CB002-ANALOGES RESTORE THE P53 PATHWAY AND TARGET S-PHASE CHECKPOINT” (Brown University, priority 2020, published 2023):

What was measured:
Assay type in all cases: cell-based, human
Noxa = Noxa protein expression by immunoblotting; conditions: for Noxa protein induction upon knockdown of ATF3/4: SW480 cells, 100 μM CB002 or 25 μM CB002-analog #4
Description: Immunoblotting. After treatment, cells were harvested by trypsinization, washed with phosphate-buffered saline, and lysed with RIPA buffer (Sigma-Aldrich) for thirty minutes to one hour at 4° C. Protein lysates were spun down. The supernatant was collected. Protein quantification was performed using a Pierce™ BCA Protein Assay Kit (Thermo Fisher Scientific, Waltham, Mass., USA). 1× NuPAGE® LDS sample buffer (Thermo Fisher Scientific, Waltham, Mass., USA) and 2-Mercaptoethanol as the reducing agent (Sigma-Aldrich) were added to protein lysates followed by boiling for fifteen minutes at 95° C. Equal total protein amounts samples were loaded into NuPAGE™ Novex™ 4-12% Bis-Tris Protein Gels (1.5 mm, Thermo Fisher Scientific, Waltham, Mass., USA). Gel electrophoresis was performed with NuPAGE™ MES SDS Running Buffer. Proteins were transferred onto an Immobilon-P membrane (PVDF, EMD Millipore, Taunton, Mass., USA) using a Bio-Rad system with a 10% Tris-Glycine and 10% methanol transfer buffer diluted in distilled and deionized water. After transfer, membranes were blocked with 10% milk in Tris-buffered saline with Tween 20 (TBST) solution. The membranes were then incubated overnight with the primary antibody, washed with TBST, and incubated with secondary antibody for one hour. Incubations were performed in 5% milk in TBST solution. Signal was detected by using a chemiluminescent detection kit, followed by autoradiography. The following antibodies were used: p53 (DO-1, 1:1000, Santa Cruz, Calif., USA), p73 (1:1000, Bethyl Laboratories), p21, and NOXA (1:250, EMD Millipore, Taunton, Mass., USA), DR5, FADD, cleaved caspase 3, cleaved caspase 8, cleaved PARP, and LC3B (1:1000, Cell Signaling Technology, Inc., Danvers, Mass. USA), and β-actin (1:10000, Sigma-Aldrich, St. Louis, Mo., USA).
Immunoblotting (additional method). […] Total protein per sample was determined using a Pierce™ BCA Protein Assay Kit (Thermo Fisher Scientific, Waltham, Mass., USA). […] Signal was detected using a chemiluminescent detection kit, followed by autoradiography. […]

SW480 colon cancer cells = experiment: Immunoblot of cell cycle markers; conditions: for M-phase marker pH3(Ser10) / pcdc2(Tyr15) and pcdc25c(Ser16) expression: combination with etoposide; for S-phase marker p-RPA-RPA2(S8) expression: synchronized SW480, time-course after release
Description: Immunoblotting (additional method). After treatment, floating cells were collected, and adherent cells were trypsinized, washed with phosphate-buffered saline, and lysed with RIPA buffer (Sigma-Aldrich, St. Louis, Mo., USA) for thirty minutes to one hour at 4° C. Protein lysates were pelleted. The supernatant was collected. Total protein per sample was determined using a Pierce™ BCA Protein Assay Kit (Thermo Fisher Scientific, Waltham, Mass., USA). Proteins were denatured using 1× NuPAGE® LDS sample buffer (Thermo Fisher Scientific, Waltham, Mass., USA) and reduced with 2-mercaptoethanol (Sigma-Aldrich, St. Louis, Mo., USA). Protein lysates were boiled for fifteen min at 95° C. After protein normalization, samples were loaded into NuPAGE™ Novex™ 4-12% Bis-Tris Protein Gels (Thermo Fisher Scientific, Waltham, Mass., USA). Gel electrophoresis was performed with NuPAGE™ MES SDS Running Buffer. Proteins were transferred onto an Immobilon-P membrane (PVDF, EMD Millipore, Taunton, Mass., USA) using a Bio-Rad system with a 10% Tris-Glycine and 10% methanol transfer buffer diluted in distilled and deionized water. Membranes were blocked with 10% milk in Tris-buffered saline with Tween 20 (TBST) solution. The membranes were incubated overnight with the primary antibody, washed with TBST, and incubated with secondary antibody for one hour. Primary antibody incubations were performed in 5% milk or 5% bovine serum albumin in TBST solution as per manufacturer instructions. Signal was detected using a chemiluminescent detection kit, followed by autoradiography. The following antibodies were used: p53 (1:1000, #sc-126, Santa Cruz Biotechnology, Santa Cruz, Calif., USA), p73 (1:1000, #A300-126A, Bethyl Laboratories), Noxa (1:250, #OP180, EMD Millipore, Taunton, Mass., USA), DR5 (#3696), cleaved PARP (#9546), phospho-RPA32/RPA2 (#54762), p-cdc2 (#9111), p-cdc25c, pH3 (#3377) (1:1,000; Cell Signaling Technology, Inc., Danvers, Mass. USA) and β-actin (1:10000, A5441, Sigma).
Cell synchronization. Synchronized cells were synchronized by double thymidine block. Cells were treated with […] thymidine for sixteen hours. The drug was removed and replaced by complete growth media for eight hours. Cells were treated for the second time with […] thymidine for sixteen hours. At this point, cells were treated and harvested.

[1] = tested on: colorectal cancer patient-derived organoid; experiment: Cytotoxicity and immunofluorescence in patient-derived organoid; conditions: for cleaved caspase-3 staining (apoptotic cells): IC50 doses; for ethidium homodimer staining (dead cells): compared to vehicle control
Description: CellTiter-Glo® luminescent cell viability assay. Cells were seeded in 96-well plates at a density of 5×10^3 cells per well. 20 μL of CellTiter-Glo® Reagent was added directly to the wells, following the manufacturers protocol. The bioluminescence signal was determined using an IVIS imaging system, optionally at a period of 48-72 hours after treatment.
Immunohistochemistry. 30,000 cells/well were seeded in 8-chamber slides. Cells were washed with phosphate-buffered saline at the harvesting time point and fixed with 4% parafornaldehyde for 25 minutes. Cells were then washed with phosphate-buffered saline and permeabilized with 0.2% Triton X-100 for 5-10 minutes. Cells were then washed with phosphate-buffered saline and incubated overnight 1:100 with the primary antibody Cyt-C (#sc-13560, Santa Cruz Biotechnology, Santa Cruz, Calif., USA), Tom-20 (#42406), commercially available from Cell Signaling Technology, Inc., Danvers, Mass. USA), cells were washed with phosphate-buffered saline and incubated with secondary antibody 1:200 goat-anti mouse Alexa Fluor 488 (#A-11008, Thermo Fisher Scientific, Waltham, Mass., USA) and Cy3 AffiniPure Donkey anti-rabbit (#711-165-152, Jackson ImmunoResearch, West Grove, Pa., USA) for one hour followed by phosphate-buffered saline washing, 1:400 Dapi staining, washed with phosphate-buffered saline, and imaged. Organoid viability imaging was determined by CellTrace™ Calcein Green (#C34852, Thermo Fisher Scientific, Waltham, Mass., USA), Ethidium Homodimer-1 (#E1169, Thermo Fisher Scientific, Waltham, Mass., USA), Ki67 incubated at 37° C. for one hour then washed with phosphate-buffered saline and imaged. Imaging was done using a Leica Confocal Microscope.

| SMILES | Noxa expression (Noxa; 24 hours, DLD-1 and SW480 cells) | Noxa protein induction upon knockdown of ATF3/4 (Noxa) | M-phase marker pH3(Ser10) (SW480 colon cancer cells; synchronized SW480) | pcdc2(Tyr15) and pcdc25c(Ser16) expression (SW480 colon cancer cells; synchronized SW480) | S-phase marker p-RPA-RPA2(S8) expression (SW480 colon cancer cells) | cleaved caspase-3 staining (apoptotic cells) [1] | ethidium homodimer staining (dead cells) [1] | pcdc2(Tyr15) and pcdc25c(Ser16) protein expression (SW480 colon cancer cells; single agent, synchronized SW480) | p21 (SW480 colon cancer cells; time-course after synchronization release) | Cyclin A expression (SW480 colon cancer cells; time-course, compared to DMSO and etoposide) | organoid size (calcein staining) [1] | Ki-67 staining (proliferating cells) ([1]; seventy-two hours, dose-dependent) | cytotoxicity (cell viability response curve) ([1]; versus CB002 parent compound) |
| --- | --- | --- | --- | --- | --- | --- | --- | --- | --- | --- | --- | --- | --- |
| Cn1c(=O)c2[nH]c(Nc3ccccc3)nc2n(C)c1=O [CB002] | induce Noxa expression | abrogated Noxa protein induction | does not increase | decrease in expression | increase | increases apoptotic cells | increase of ethidium homodimer staining |  |  |  |  |  |  |
| Cn1c(=O)c2[nH]c(Nc3cccc(C(F)(F)F)c3)nc2n(C)c1=O [CB002-analog #4] |  | abrogated Noxa protein induction | does not increase | decrease in expression | increased compared to DMSO | increases apoptotic cells | increase of ethidium homodimer staining | decreased | increase | did not decrease over time | smaller in size | decreases the population of proliferating cells | enhances cytotoxicity compared to the CB002 parent compound |
